In the SangsterLogP compilation:

Test: method code SF, from DOI: 10.1021/jf00073a025

Compound | logP
CNC(=O)O/N=C1/SC(C)OC1C (centres undefined) | 0.96
CCCC1OCS/C1=N\OC(=O)NC (centres undefined) | 1.52
CNC(=O)O/N=C1/CSCS1 | 0.51
CNC(=O)ON=C1CSC(C)(C)S1 | 1.33
CNC(=O)ON=C1SCOC1C (stereo in doubt) | 0.46
CNC(=O)ON=C1COCCS1 (stereo in doubt) | -0
CNC(=O)O/N=C1\SCSC1C (centres undefined) | 0.91
CNC(=O)ON=C1SCSC1(C)C | 1.31
CNC(=O)O/N=C1\SCCSC1(C)C | 1.51
CNC(=O)O/N=C1/SCOC1(C)C | 0.82
CNC(=O)O/N=C1\SCOC1C(C)C (centres undefined) | 1.48
CNC(=O)ON=C1CSCCS1 | 0.49
CNC(=O)O/N=C1\SCOC1CCOC (centres undefined) | 0.51
CNC(=O)O/N=C1/COCS1 | 0.06
